Among the data in patent US8778919B2, “Cyclic anilino—pyridinotriazines” (Janssen Pharmaceutica NV, priority 2005, dated 2014) are C3.7 score, C3.10 score and melting point values, retold here.

One data set addresses CDK6/cyclinD3 human (Homo sapiens, UniProt Q00534). The data set can be described thus: Kinase profiling C3.7 CDK6/cyclinD3 human. It counts as biochemical. The conditions noted are these: CDK6/cyclinD3, test concentration of 10^−6 M.
Another data set addresses Yes (h) (Homo sapiens, UniProt P07947). The data set can be described thus: Kinase profiling C3.10 Yes human. It counts as biochemical. The following applies: test concentration of 10^−6 M. How it is done: The in vitro inhibition of a panel of kinases was assessed using either the glass-fiber filter technology as described by Davies, S. P. et al., Biochem J. (2000), 351; p. 95-105. In the glass-fiber filter technology the activity of the kinase of interest is measured using an appropriate substrate that is incubated with the aforementioned kinase protein in the presence of (^33P) radiolabeled ATP. (^33P) Phosporylation of the substrate is subsequently measured as radioactivity bound on a glassfiber-filter.
All kinases are pre-diluted to a 10× working concentration prior to addition into the assay. The composition of the dilution buffer for each kinase is detailed below.
All substrates are dissolved and diluted to working stocks in de-ionised water, apart from histone H1 that is stored in 10× working stock in 20 mM MOPS pH 7.4.
In a final reaction volume of 25 μl, Yes (h) (5-10 mU) is incubated with 8 mM MOPS pH 7.0, 0.2 mM EDTA, 0.1 mg/ml poly(Glu, Tyr) 4:1, 10 mM MgAcetate and [γ-^33P-ATP] (specific activity approx. 500 cpm/pmol, concentration as required). The reaction is initiated by the addition of the MgATP mix. After incubation for 40 minutes at room temperature, the reaction is stopped by the addition of 5 μl of a 3% phosphoric acid solution. 10 μl of the reaction is then spotted onto a Filtermat A and washed three times for 5 minutes in 75 mM phosphoric acid and once in methanol prior to drying and scintillation counting.

Sequence of Yes (h) (P07947 whole entry): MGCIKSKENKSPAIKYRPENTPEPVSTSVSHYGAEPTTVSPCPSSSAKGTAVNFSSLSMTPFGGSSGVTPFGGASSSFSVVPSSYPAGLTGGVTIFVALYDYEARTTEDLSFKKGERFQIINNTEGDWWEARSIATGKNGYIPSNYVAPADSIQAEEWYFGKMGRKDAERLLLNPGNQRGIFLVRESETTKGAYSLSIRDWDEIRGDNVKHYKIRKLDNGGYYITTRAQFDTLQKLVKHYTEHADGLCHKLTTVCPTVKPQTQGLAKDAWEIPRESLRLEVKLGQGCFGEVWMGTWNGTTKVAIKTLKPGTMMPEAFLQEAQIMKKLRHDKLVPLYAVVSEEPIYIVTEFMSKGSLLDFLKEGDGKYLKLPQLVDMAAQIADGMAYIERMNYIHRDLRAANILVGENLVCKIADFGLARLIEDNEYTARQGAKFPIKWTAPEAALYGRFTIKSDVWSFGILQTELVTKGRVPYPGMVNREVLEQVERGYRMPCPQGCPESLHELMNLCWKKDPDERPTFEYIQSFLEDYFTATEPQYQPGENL
Sequence of CDK6/cyclinD3 human (Q00534 whole entry): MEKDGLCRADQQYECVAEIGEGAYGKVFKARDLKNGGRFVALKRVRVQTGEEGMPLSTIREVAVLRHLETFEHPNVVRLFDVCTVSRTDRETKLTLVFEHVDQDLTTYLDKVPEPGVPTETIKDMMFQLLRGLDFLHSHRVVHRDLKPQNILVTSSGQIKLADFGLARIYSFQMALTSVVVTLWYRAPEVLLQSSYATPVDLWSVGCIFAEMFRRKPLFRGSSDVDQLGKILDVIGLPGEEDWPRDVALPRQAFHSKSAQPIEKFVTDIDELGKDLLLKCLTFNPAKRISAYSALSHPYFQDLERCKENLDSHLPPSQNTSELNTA
Sequence of CDK6/cyclinD3 human (P30281 whole entry partner): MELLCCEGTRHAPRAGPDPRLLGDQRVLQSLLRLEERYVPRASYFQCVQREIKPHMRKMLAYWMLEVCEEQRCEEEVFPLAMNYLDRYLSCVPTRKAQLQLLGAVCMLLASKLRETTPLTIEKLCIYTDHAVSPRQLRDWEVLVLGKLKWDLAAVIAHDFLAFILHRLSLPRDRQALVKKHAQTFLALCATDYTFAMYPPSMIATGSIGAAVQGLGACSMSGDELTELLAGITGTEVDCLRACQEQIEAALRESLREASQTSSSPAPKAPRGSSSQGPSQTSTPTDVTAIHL

For the compound `O=C1CN2CCN(CC2)Cc2cccc(c2)Nc2ncnc(n2)-c2ccnc(c2)CCCN1` [Compound 36], at CDK6/cyclinD3 human, the C3.7 score is 1 (Score 1 = 10-30% inhibition). In addition, the C3.10 score on Yes (h) is 1 (Score 1 = 10-30% inhibition).
Consider `CN1CC(=O)NCCCc2cc(ccn2)-c2ncnc(n2)Nc2cccc(c2)C1` [Compound 8], for which the C3.7 score at CDK6/cyclinD3 human is 2 (Score 2 = 30-60% inhibition).
Still for that read-out and setting: to `CCN1CC(=O)NCCCc2cc(ccn2)-c2ncnc(n2)Nc2cc(Cl)cc(c2)C1` [Compound 34] belongs 2 (Score 2 = 30-60% inhibition).
Regarding `CN1CC(=O)NCCCc2cc(ccn2)-c2ncnc(n2)Nc2cc(Cl)cc(c2)C1` [Compound 33], the C3.7 score on CDK6/cyclinD3 human is 3 (Score 3 = 60-80% inhibition).
The melting point is the temperature of the solid-liquid transition. The compound `CN1CC(=O)NCC#Cc2cc(ccn2)-c2ncnc(n2)Nc2cccc(c2)C1` [Compound 1] had a melting point of 267.5 to 269.3 °C. Further, the C3.7 score at CDK6/cyclinD3 human is 4 (Score 4 = >80% inhibition). Also, the C3.10 score at Yes (h) was 3 (Score 3 = 60-80% inhibition).
For the compound `O=C1NCCCc2cc(ccn2)-c2ncnc(n2)Nc2cccc(c2)CN2C[C@H](O)C[C@@H]12` [Compound 14], the C3.7 score on CDK6/cyclinD3 human is reported as 1 (Score 1 = 10-30% inhibition). For the same compound, the C3.10 score on Yes (h) was 1 (Score 1 = 10-30% inhibition).
`CN1CCC(=O)NCCCc2cc(ccn2)-c2ncnc(n2)Nc2cccc(c2)C1` [Compound 3]: the C3.7 score on CDK6/cyclinD3 human is reported as 2 (Score 2 = 30-60% inhibition). Besides, the C3.10 score at Yes (h) is 2 (Score 2 = 30-60% inhibition).
Turning to `CN1CC(=O)NCCCc2cc(ccn2)-c2ncnc(n2)Nc2cccc(c2)C1` [Compound 10], the C3.7 score at CDK6/cyclinD3 human was 4 (Score 4 = >80% inhibition). The C3.10 score at Yes (h) is recorded as 2 (Score 2 = 30-60% inhibition).
Compound `CN1CCCc2cc(ccn2)-c2ncnc(n2)Nc2cccc(c2)CNC(=O)C1` [Compound 7] yielded a melting point of 201.9 to 203.3 °C. The C3.7 score on CDK6/cyclinD3 human was 1 (Score 1 = 10-30% inhibition). Further, the C3.10 score at Yes (h) was 2 (Score 2 = 30-60% inhibition).
For `O=C1NCCCc2cc(ccn2)-c2ncnc(n2)Nc2cccc(c2)CN2CCCC12` (stereo not shown) [Compound 12], the C3.7 score at CDK6/cyclinD3 human is 1 (Score 1 = 10-30% inhibition). Further, the C3.10 score at Yes (h) was 2 (Score 2 = 30-60% inhibition).
Consider `O=C1CCN2CCN(CC2)Cc2cccc(c2)Nc2ncnc(n2)-c2ccnc(c2)CCCN1` [Compound 35], for which the C3.7 score on CDK6/cyclinD3 human was 3 (Score 3 = 60-80% inhibition). Besides, the C3.10 score at Yes (h) is recorded as 2 (Score 2 = 30-60% inhibition).
For the compound `O=C1NCCCc2cncc(c2)-c2ncnc(n2)Nc2cccc(c2)CN[C@H]1CO` [Compound 81], at CDK6/cyclinD3 human, the C3.7 score is given as 1 (Score 1 = 10-30% inhibition). Moreover, at Yes (h), the C3.10 score is recorded as 1 (Score 1 = 10-30% inhibition).
Consider `CN1CCN(CCN2CCC(=O)NCCCc3cc(ccn3)-c3ncnc(n3)Nc3cccc(c3)C2)CC1` [Compound 11], for which, on CDK6/cyclinD3 human, the C3.7 score is listed as 1 (Score 1 = 10-30% inhibition). Further, the C3.10 score at Yes (h) is 1 (Score 1 = 10-30% inhibition).
Consider `CCN1CCCc2cc(ccn2)-c2ncnc(n2)Nc2cccc(c2)CCNC(=O)C1` [Compound 30], for which the C3.7 score at CDK6/cyclinD3 human was 1 (Score 1 = 10-30% inhibition).
Turning to `CCN1CC(=O)NCCCc2cccc(c2)-c2ncnc(n2)Nc2cccc(c2)C1` [Compound 54], the C3.7 score at CDK6/cyclinD3 human is recorded as 1 (Score 1 = 10-30% inhibition). For the same compound, at Yes (h), the C3.10 score is reported as 2 (Score 2 = 30-60% inhibition).
Regarding `O=C1NCCCc2cccc(c2)-c2ncnc(n2)Nc2cccc(c2)CN[C@H]1CO` [Compound 46], the C3.7 score at CDK6/cyclinD3 human is 1 (Score 1 = 10-30% inhibition).
Take `CN1CCCC(=O)NCCCc2cc(ccn2)-c2ncnc(n2)Nc2cccc(c2)C1` [Compound 13]: the C3.7 score on CDK6/cyclinD3 human is 1 (Score 1 = 10-30% inhibition). In addition, at Yes (h), the C3.10 score is 1 (Score 1 = 10-30% inhibition).
On to `O=C1NCCCc2cc(ccn2)-c2ncnc(n2)Nc2cccc(c2)CN2CCCC1C2` (stereo not shown) [Compound 15], for which, on CDK6/cyclinD3 human, the C3.7 score is on record as 1 (Score 1 = 10-30% inhibition). Also, the C3.10 score on Yes (h) was 1 (Score 1 = 10-30% inhibition).
In the case of `O=C1NCCCc2cc(ccc2F)-c2ncnc(n2)Nc2cc(Cl)cc(c2)CN[C@H]1CO` [Compound 71], the C3.7 score at CDK6/cyclinD3 human was 2 (Score 2 = 30-60% inhibition). Moreover, the C3.10 score at Yes (h) is 4 (Score 4 = >80% inhibition).
Turning to `O=C1CN2CCN(CC2)Cc2cc(Cl)cc(c2)Nc2ncnc(n2)-c2ccnc(c2)CCCN1` [Compound 41], at CDK6/cyclinD3 human, the C3.7 score is 1 (Score 1 = 10-30% inhibition).
Still for that read-out and setting: to `O=C1CN2CCN(CC2)Cc2cccc(c2)Nc2ncnc(n2)-c2ccnc(c2)CCCN1` [Compound 9] belongs 1 (Score 1 = 10-30% inhibition).
Turning to `O=C1CN2CCN(CC2)Cc2cccc(c2)Nc2ncnc(n2)-c2ccc(F)c(c2)CCCN1` [Compound 66], the C3.10 score at Yes (h) is given as 1 (Score 1 = 10-30% inhibition).
Regarding `CN1CC(=O)NC/C(Cl)=C/c2cc(ccn2)-c2ncnc(n2)Nc2cccc(c2)C1` [Compound 2], the C3.7 score on CDK6/cyclinD3 human is on record as 4 (Score 4 = >80% inhibition). Moreover, the C3.10 score at Yes (h) is listed as 4 (Score 4 = >80% inhibition).
